Like-named read-outs stand apart in the source and are kept apart here. Where no end group is shown, it is not given here.
Tests used:
[1] = Thermogravimetric analysis overlaid with DSC; details: after boiling at ~190 °C (melting at ~130 °C)
Method: Thermogravimetric Analysis (TGA) was performed for ammonium acetate and ammonium TFA using a TA Thermogravimetric Analyzer Q500 (TA, Instruments, New Castle, DE, USA). Standard aluminum pans were filled with about 5–7 mg of powder. Temperature ramp experiments were performed from 30 °C to 300 °C at a rate of 5 °C·min^−1 with a nitrogen purge at 50 mL·min^−1.
Differential scanning calorimetry (DSC) analysis was performed using a TA Instruments 175 Model Auto Q20 DSC. Samples of 5–7 mg were weighed and placed into standard aluminum pans. The scans were performed at a ramp rate of 5 °C·min^−1 in the range of 30–300 °C. During the analyses, high-purity nitrogen flowed through the sample chamber at a rate of 50 mL·min^−1.

[2] = cited from earlier work
physchem = type: physicochemical
Method: The samples were shaken on a vortex mixer for 5 min and on an orbital shaker at 100 rpm for 3 h. The samples were collected and centrifuged at 12,000 rpm for 15 min. The supernatants of the samples were collected and analyzed using HPLC as described in Section 2.6 below.
(§1) CSP7 was chemically analyzed with a Thermo Scientific™ Dionex™ UltiMate™ 3000 HPLC System (Thermo Scientific, Sunnyvale, CA, USA) with a wavelength of 220 nm. The two mobile phases were designated Phase A (0.1% trifluoroacetic acid in water) and Phase B (0.09% trifluoroacetic acid in a mixture of 20:80 water and acetonitrile). The HPLC gradient that operated at 1.0 mL·min^−1 ran from 25% to 35% for mobile Phase B for 20 min then equilibrated at 25% for 5 min. An Ultimate 3000 Autosampler was utilized to inject 20 μL samples. Injections were passed through a Phenomenex® Luna 5 μm C18(2) 100 Å, 150 mm × 4.6 mm (Phenomenex, Torrance, CA, USA), maintained at ambient temperature. The retention time of CSP7 was approximately 8.3 min. The standard curve of the CSP7 (concentrations of 0.015625–1.00 mg·mL^−1) were prepared. All analyses maintained linearity in the range tested. Chromeleon Version 6.80 software (Thermo Scientific) was used to process all chromatography data.

[3] = Water sorption-desorption isotherm (dynamic vapor sorption); type: physicochemical; details: bulk powder, 25 °C, sorption-desorption cycle
Method: Water sorption isotherms at 25 °C were determined for lyophilized formulations using a dynamic vapor sorption (DVS-1) microbalance (Surface Measurement Systems, London, UK). A quartz pan was filled with about 8–10 mg of powder. Samples were dried with nitrogen gas until a baseline was established less than 0.002% change in dm/dt for 120 min. Each formulation was run through a full sorption-desorption cycle from 0% to 90% RH in steps of 10% RH at 25 °C. Humidity was increased/decreased by 10% after equilibrium was reached, as determined by a dm/dt less than 0.0075% within an interval of 5 min. Sorption-desorption isotherms were calculated and plotted based on their percent change in mass compared to the initial dry formulation weight (Equation (2)):(2) % Mass sorption/desorption =(Increase or decrease in mass from water sorption/desorption/mass of dry powder at initial equilibration (0% RH))× 100

[4] = Molar ratio of counterions to CSP7 by solution 1H/19F NMR; type: physicochemical; details: bulk powder, initial vs after exposure to 90% RH, Equation (6)
Method: We acquired ^1H-NMR spectra using a Varian® NMR 600 MHz Spectrometer (Agilent Inc., Palo Alto, CA, USA) at 25 °C. The lyophilized samples were reconstituted in deuterium oxide at 1.0 mg·mL^−1. We added 5 μL of 1 N NaOH/D2O was added to the sample to dissolve the peptides. Solutions were then transferred to 5 mm NMR tubes for NMR data acquisition. Chemical shifts were referenced to a residual solvent, H2O, at 4.61 ppm. At this time, the ^1H-NMR spectra were acquired using an Agilent Direct Drive 600 spectrometer, operating at a proton frequency of 599.75 MHz (14.1 T) at 298 K, equipped with an AutoX DB probe. All ^1H-NMR spectra were recorded in D2O after 128 cycles for each sample. The molar ratio of counterion to peptide was calculated according to the peak area of the methyl group of CSP7 (0.85, 0.93, and 1.03 ppm; 18 H atoms in total) and the methyl group of the acetate counterion (1.75 ppm; 3 H atoms). […]
We acquired ^19F-NMR spectra using a Varian® NMR 600 MHz Spectrometer (Agilent Inc., Palo Alto, CA, USA) at 25 °C. […] All ^19F NMR spectra were recorded in D2O after 512 cycles for each sample. The molar ratio of counterion to peptide was calculated according to the peak area of fluorine atoms of the trifluoroacetate counterion (−75.5 ppm, 3 F atoms) and the […] (−107.7, −110.9, and −133.5 ppm; 1F atom each). […]

[5] = Solution storage stability (HPLC recovery); type: physicochemical
Method: (§2) The peptide solution was prepared in DPBS and TBS at 0.5 mg·ml^−1 of free peptide. The ammonium hydroxide was added to the solution to dissolve the peptide until a clear solution was obtained.
The peptide solutions were stored at −80 °C, −20 °C, 2−8 °C, and at room temperature (25 °C). The samples were collected after 24 h and 48 h and analyzed using HPLC as described in Section 2.6 below.
as §1

[6] = type: physicochemical; details: DPBS; for Recovery of CSP7 in the aggregates / Recovery of CSP7 in the supernatant: 12 h shaking
Method: as §2
The peptide solutions were shaken on a VWR standard orbital shaker model 1000 (Radnor, PA, USA) at 200 rpm at 5 °C and 25 °C. The samples were collected at 0.5, 1, 3, 6, and 12 h, and they were analyzed using HPLC as described in Section 2.6 below. The CSP7 aggregates were also collected and analyzed using ^1H-NMR as described in Section 2.14 below.
as §1

[7] = type: physicochemical
Method: as §2
Freeze-thaw cycles were studied at −20 °C and −80 °C. The peptide solutions were frozen at each temperature for 1 h and then thawed at room temperature (25 °C) for 1 h. The freeze-thaw cycle was repeated for 5 cycles. The samples were collected at the end of each cycle and analyzed using HPLC as described in Section 2.6 below.
as §1

Compound: N.O=C(O)C(F)(F)F [ammonium TFA]
- Mass remaining in TGA [1]: 0%

Compound: CC(=O)O.N [ammonium acetate]
- Vapor pressure ([2]; at 25 °C): 13.9 mm Hg
- Boiling point [2]: 138.5 °C

Compound: FTTFTVT [CSP7 TFA]
- Solubility (physchem; 3 h, pH 10): 4134 ± 320 µg/mL
- solubility at 3 h (physchem; pH 8, Solubility): 1220 ± 24 µg/mL
- Decrease in weight in moisture desorption isotherm compared to initial weight [3]: no change in weight

Compound: FTTFTVT [CSP7 acetate]
- Percentage of mass loss calculated from NMR molar ratios of acetate to CSP7 [4]: 6.37%
- solubility at 3 h (physchem; pH 2, Solubility): 701 ± 153 µg/mL
- solubility at 3 h (physchem; pH 3.5, Solubility): 241 ± 7 µg/mL
- solubility at 3 h (physchem; pH 4.5, Solubility): 160 ± 3 µg/mL
- solubility at 3 h (physchem; pH 5.5, Solubility): 174 ± 16 µg/mL
- solubility at 3 h (physchem; pH 6.5, Solubility): 178 ± 13 µg/mL
- solubility at 3 h (physchem; pH 7.5, Solubility): 347 ± 14 µg/mL
- solubility at 3 h (physchem; pH 10, Solubility): 2880 ± 201 µg/mL
- Decrease in weight in moisture desorption isotherm compared to initial weight [3]: 6.36%
- Recovery in bulk solution after storage ([5]; DPBS, 24 h, 5 °C): 99.9 ± 0.1%
- Recovery in bulk solution after storage ([5]; DPBS, 24 h, 25 °C): 100.1 ± 0.1%
- Recovery in bulk solution after storage ([5]; DPBS, 24 h, −20 °C): 100.2 ± 0.8%
- Recovery in bulk solution after storage ([5]; DPBS, 24 h, −80 °C): 100.0 ± 0.1%
- Recovery in bulk solution after storage ([5]; DPBS, 48 h, 5 °C): 99.9 ± 0.1%
- Recovery in bulk solution after storage ([5]; DPBS, 48 h, 25 °C): 99.9 ± 0.3%
- Recovery in bulk solution after storage ([5]; DPBS, 48 h, −20 °C): 100.3 ± 0.7%
- Recovery in bulk solution after storage ([5]; DPBS, 48 h, −80 °C): 100.0 ± 0.1%
- Recovery in bulk solution after storage ([5]; TBS, 24 h, 5 °C): 100.1 ± 0.2%
- Recovery in bulk solution after storage ([5]; TBS, 24 h, 25 °C): 100.2 ± 0.3%
- Recovery in bulk solution after storage ([5]; TBS, 24 h, −20 °C): 100.2 ± 0.2%
- Recovery in bulk solution after storage ([5]; TBS, 24 h, −80 °C): 100.1 ± 0.2%
- Recovery in bulk solution after storage ([5]; TBS, 48 h, 5 °C): 100.1 ± 0.1%
- Recovery in bulk solution after storage ([5]; TBS, 48 h, 25 °C): 100.3 ± 0.1%
- Recovery in bulk solution after storage ([5]; TBS, 48 h, −20 °C): 100.5 ± 0.2%
- Recovery in bulk solution after storage ([5]; TBS, 48 h, −80 °C): 100.5 ± 0.4%
- Recovery of CSP7 in DPBS and TBS ([5]; after 48 h storage at −80 °C, −20 °C, 5 °C and 25 °C): about 100%
- Recovery of CSP7 in the aggregates ([6]; 5 °C): 31.7 ± 2.3%
- Recovery of CSP7 in the supernatant ([6]; 5 °C): 67.8 ± 5.8%
- Recovery of CSP7 in the aggregates ([6]; 25 °C): 38.3 ± 2.8%
- Recovery of CSP7 in the supernatant ([6]; 25 °C): 59.7 ± 1.5%
- Shaking time after which peptide aggregation was found ([6]; orbital shaker, 5 °C and 25 °C): 6 h
- CSP7 remaining in DPBS and TBS [7]: about 100%
- Recovery in bulk solution after freeze-thaw ([7]; DPBS, −20 °C, cycle 1): 100.3 ± 0.2%
- Recovery in bulk solution after freeze-thaw ([7]; DPBS, −20 °C, cycle 2): 100.7 ± 0.1%
- Recovery in bulk solution after freeze-thaw ([7]; DPBS, −20 °C, cycle 3): 100.7 ± 0.1%
- Recovery in bulk solution after freeze-thaw ([7]; DPBS, −20 °C, cycle 4): 101.0 ± 0.2%
- Recovery in bulk solution after freeze-thaw ([7]; DPBS, −20 °C, cycle 5): 101.3 ± 0.2%
- Recovery in bulk solution after freeze-thaw ([7]; DPBS, −80 °C, cycle 1): 99.8 ± 0.2%
- Recovery in bulk solution after freeze-thaw ([7]; DPBS, −80 °C, cycle 2): 100.1 ± 0.1%
- Recovery in bulk solution after freeze-thaw ([7]; DPBS, −80 °C, cycle 3): 100.2 ± 0.2%
- Recovery in bulk solution after freeze-thaw ([7]; DPBS, −80 °C, cycle 4): 100.4 ± 0.1%
- Recovery in bulk solution after freeze-thaw ([7]; DPBS, −80 °C, cycle 5): 100.9 ± 0.1%
- Recovery in bulk solution after freeze-thaw ([7]; TBS, −20 °C, cycle 1): 99.4 ± 0.3%
- Recovery in bulk solution after freeze-thaw ([7]; TBS, −20 °C, cycle 2): 99.6 ± 0.1%
- Recovery in bulk solution after freeze-thaw ([7]; TBS, −20 °C, cycle 3): 99.7 ± 0.2%
- Recovery in bulk solution after freeze-thaw ([7]; TBS, −20 °C, cycle 4): 99.8 ± 0.2%
- Recovery in bulk solution after freeze-thaw ([7]; TBS, −20 °C, cycle 5): 100.2 ± 0.1%
- Recovery in bulk solution after freeze-thaw ([7]; TBS, −80 °C, cycle 1): 99.9 ± 0.3%
- Recovery in bulk solution after freeze-thaw ([7]; TBS, −80 °C, cycle 2): 100.3 ± 0.2%
- Recovery in bulk solution after freeze-thaw ([7]; TBS, −80 °C, cycle 3): 100.4 ± 0.2%
- Recovery in bulk solution after freeze-thaw ([7]; TBS, −80 °C, cycle 4): 100.7 ± 0.2%
- Recovery in bulk solution after freeze-thaw ([7]; TBS, −80 °C, cycle 5): 100.6 ± 0.4%
